Data: BindingDB's records for patent US11787780 (Corcept Therapeutics, 2023)

target: T1, Glucocorticoid receptor (Homo sapiens, UniProt P04150); assay: GR Binding Assay
T1 sequence (P04150 whole entry): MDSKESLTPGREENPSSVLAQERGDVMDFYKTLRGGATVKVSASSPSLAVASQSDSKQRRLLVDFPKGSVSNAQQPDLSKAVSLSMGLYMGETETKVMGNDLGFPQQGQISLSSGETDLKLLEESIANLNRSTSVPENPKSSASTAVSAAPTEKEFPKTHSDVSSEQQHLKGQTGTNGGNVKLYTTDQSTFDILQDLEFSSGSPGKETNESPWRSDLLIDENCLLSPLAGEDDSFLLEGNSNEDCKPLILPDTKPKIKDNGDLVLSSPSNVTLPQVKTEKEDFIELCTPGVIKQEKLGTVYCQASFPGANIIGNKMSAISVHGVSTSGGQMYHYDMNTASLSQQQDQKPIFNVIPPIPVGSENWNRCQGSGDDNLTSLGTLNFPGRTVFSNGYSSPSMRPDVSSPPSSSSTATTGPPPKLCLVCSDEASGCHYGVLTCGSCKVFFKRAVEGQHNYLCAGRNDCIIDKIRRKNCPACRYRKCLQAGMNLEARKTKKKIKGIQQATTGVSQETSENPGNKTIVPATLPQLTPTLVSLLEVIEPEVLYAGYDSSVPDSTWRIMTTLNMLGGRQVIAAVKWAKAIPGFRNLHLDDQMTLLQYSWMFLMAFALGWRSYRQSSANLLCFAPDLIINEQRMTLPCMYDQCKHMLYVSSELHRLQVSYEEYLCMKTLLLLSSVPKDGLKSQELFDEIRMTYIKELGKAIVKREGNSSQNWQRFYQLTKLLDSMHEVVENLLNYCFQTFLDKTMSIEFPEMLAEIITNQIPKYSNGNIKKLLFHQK
Method: Binding of test compounds to the glucocorticoid receptor (GR) is determined using a fluorescence polarisation (FP) assay utilising a recombinant ligand binding domain (LBD) of GR. The test compounds are assessed by their ability to displace a fluorescently tagged ligand and detection of the resulting decrease in fluorescence polarisation.

Row | IC50 [nM] | Compound
1 | 13 | CCCn1cc(S(=O)(=O)N2CCC(Cc3ccccn3)(c3cc4cnn(-c5ccc(F)cc5)c4cc3C)C2)cn1 (stereo not drawn) [US11787780, Example 152]
2 | 180 | Cc1cc2c(cnn2-c2ccc(F)cc2)cc1C1(Cc2ccccc2)CC(O)N(Cc2ccccc2)C1=O (stereo not drawn) [US11787780, Example 336]
3 | 12 | Cc1cc2c(cnn2-c2ccc(=O)n(C)c2)cc1C1(Cc2ccccc2)CCN(S(=O)(=O)c2cnn(C(C)C)n2)C1 (stereo not drawn) [US11787780, Example 320]
